The target in this assay is T1, Inositol monophosphatase 1 (Bos taurus, UniProt P20456).
T1 sequence (P20456 whole entry): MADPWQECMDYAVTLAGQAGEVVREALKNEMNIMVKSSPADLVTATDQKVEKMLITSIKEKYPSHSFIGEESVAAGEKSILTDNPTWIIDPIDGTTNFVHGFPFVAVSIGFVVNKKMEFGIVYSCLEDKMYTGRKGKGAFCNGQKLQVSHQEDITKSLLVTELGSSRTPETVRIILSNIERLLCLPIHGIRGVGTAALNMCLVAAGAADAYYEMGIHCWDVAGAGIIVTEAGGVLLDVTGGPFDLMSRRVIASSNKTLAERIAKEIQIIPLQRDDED
Description: Tested for the inhibitory activity against recombinant bovine brain myo-inositol monophosphatase.
For orientation: IC50 means the midpoint of a concentration-inhibition curve. In the case of `O=P(O)(O)C(Oc1ccc(O)cc1O)P(=O)(O)O`, the IC50 is 40.8 µM.
On to `O=P(O)(O)C(O)(Cc1ccc(Cl)c(Cl)c1)P(=O)(O)O`, for which the IC50 came to 23 µM.
In the case of `O=P(O)(O)C(Cc1ccccc1)(O[C@@H]1CC[C@@H](O)C[C@@H]1O)P(=O)(O)O` it was 19.2 µM; in that of `CC(Oc1ccc(O)cc1)(P(=O)(O)O)P(=O)(O)O` [L-690330], 0.33 µM.
The value for `CC(O[C@@H]1CC[C@@H](O)C[C@@H]1O)(P(=O)(O)O)P(=O)(O)O` was 4 µM.
In the case of `CC(Oc1ccc(O)cc1O)(P(=O)(O)O)P(=O)(O)O` it was 4.4 µM.
For the molecule `O=C(NCc1cccc(CC(Oc2ccc(O)cc2)(P(=O)(O)O)P(=O)(O)O)c1)c1ccc(Cl)c(Cl)c1`, the IC50 was determined as 0.08 µM.
The value for `O=P(O)(O)C(Cc1ccccc1)(Oc1ccc(O)cc1)P(=O)(O)O` was 0.5 µM.
Take `O=P(O)(O)C(Oc1ccc(O)cc1)P(=O)(O)O`: the concentration for half-maximal inhibition (IC50) is 27 µM.
The value for `O=P(O)(O)C(CCCCCCc1ccccc1)(O[C@@H]1CC[C@@H](O)C[C@@H]1O)P(=O)(O)O` was 2.5 µM.

These data come from ChEMBL document CHEMBL1127175, “4-hydroxyphenoxymethylene bisphosphonic acid derivatives: potent, non-hydrolysable inhibitors of MYO-inositol monophosphatase” (Bioorg Med Chem Lett, 1993).
